Broadly, the IC50 is the concentration at which inhibition is half-maximal. Low readings indicate greater potency, high ones weaker potency.

A value given as a limit tells only on which side of the number the result lay.

One assay deals with T1, human GST-HPK1 (1-346) (Homo sapiens, UniProt Q92918).
T1 construct: purified human GST-HPK1 (1-346, Signalchem) enzyme; purchased Signalchem
T1 sequence (Q92918 1-346): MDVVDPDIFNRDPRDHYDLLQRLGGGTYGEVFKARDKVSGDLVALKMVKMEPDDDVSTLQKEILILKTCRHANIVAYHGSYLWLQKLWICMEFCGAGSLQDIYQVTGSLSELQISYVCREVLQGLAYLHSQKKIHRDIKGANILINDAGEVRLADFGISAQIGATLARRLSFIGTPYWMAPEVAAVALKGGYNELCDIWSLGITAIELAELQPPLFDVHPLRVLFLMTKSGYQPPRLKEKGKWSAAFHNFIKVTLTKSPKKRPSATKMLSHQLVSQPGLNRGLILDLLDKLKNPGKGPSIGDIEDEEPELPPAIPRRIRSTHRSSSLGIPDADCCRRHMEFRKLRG
The assay can be described thus: HPK1 enzyme inhibitory ability (ADP-Glo kinase assay). To be noted: human GST-HPK1 3 ng, ATP 3 uM, 25° C. 2 hours. The format is biochemical. On the procedure:
In order to evaluate the inhibitory activities of the example compounds according to the present invention on the HPK1 (hematopoietic progenitor kinase 1) enzyme, the following experiment was performed. The example compounds were reacted with the purified human GST-HPK1 (1-346, Signalchem) enzyme to evaluate the enzyme inhibitory ability by the following method. As the reaction buffer, a composition of 40 mM Tris-HCl pH 7.4, 20 mM MgCl2, 0.5 mg/mL BSA and 50 uM DTT was used, and reactions of all test matters were performed on the reaction buffer. Upon the test, the human GST-HPK1 (3 ng) enzyme, the purified ATP (3 uM) and a specific substrate solution were reacted at 25° C. for 2 hours, and then the enzyme activity was identified using an in vitro ADP-Glo™ kinase assay (promega). The enzyme activity reaction solution, the ADP-Glo reaction solution and the enzyme ability detection solution were reacted in a ratio of 2:2:1 to measure luminescence. The enzyme activity inhibition degree according to the treatment concentrations of the respective compounds was calculated based on the fluorescence of the enzyme activity of the solvent control group that was not treated with the compound, where the concentration of each compound that inhibited enzyme activity inhibition by 50% was determined as an IC50 (nM) value.
For orientation: In ADP-Glo the light output rises with the ADP produced.

The target of another assay is T2, human FLT3-ITD enzyme (Homo sapiens, UniProt P36888).
T2 sequence (P36888 1-993): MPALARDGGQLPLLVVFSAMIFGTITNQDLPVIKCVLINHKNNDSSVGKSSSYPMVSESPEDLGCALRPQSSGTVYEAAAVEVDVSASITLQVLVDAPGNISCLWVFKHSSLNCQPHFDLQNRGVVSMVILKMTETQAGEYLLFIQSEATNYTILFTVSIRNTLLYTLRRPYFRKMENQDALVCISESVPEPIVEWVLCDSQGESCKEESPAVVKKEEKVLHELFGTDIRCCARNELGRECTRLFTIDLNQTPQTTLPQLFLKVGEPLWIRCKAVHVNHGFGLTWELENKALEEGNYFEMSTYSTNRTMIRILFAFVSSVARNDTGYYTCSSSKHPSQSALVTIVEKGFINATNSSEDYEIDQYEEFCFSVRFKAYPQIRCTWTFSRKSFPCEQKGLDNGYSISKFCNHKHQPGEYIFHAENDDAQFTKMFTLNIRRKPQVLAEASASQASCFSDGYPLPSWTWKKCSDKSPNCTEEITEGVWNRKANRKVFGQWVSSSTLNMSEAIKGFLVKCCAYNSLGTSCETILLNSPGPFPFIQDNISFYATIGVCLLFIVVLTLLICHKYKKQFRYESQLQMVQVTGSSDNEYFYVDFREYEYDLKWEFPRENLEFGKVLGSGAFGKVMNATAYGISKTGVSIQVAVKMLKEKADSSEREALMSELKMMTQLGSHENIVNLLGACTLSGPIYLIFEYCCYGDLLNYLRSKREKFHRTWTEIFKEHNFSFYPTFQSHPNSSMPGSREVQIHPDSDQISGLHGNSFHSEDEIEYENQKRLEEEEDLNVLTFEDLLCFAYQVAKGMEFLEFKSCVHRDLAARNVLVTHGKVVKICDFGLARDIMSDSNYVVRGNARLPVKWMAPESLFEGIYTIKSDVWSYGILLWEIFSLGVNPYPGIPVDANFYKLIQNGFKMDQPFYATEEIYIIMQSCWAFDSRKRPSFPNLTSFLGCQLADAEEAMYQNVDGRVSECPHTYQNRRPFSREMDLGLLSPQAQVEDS
The assay can be described thus: FLT3 enzyme inhibitory ability (ADP-Glo kinase assay). The format is biochemical. The note with it: human FLT3-ITD enzyme 10 ng, ATP 10 μM, 25° C. 1 hour. Here is the method: The inhibitory activities of the example compounds according to the present invention to the FLT3-ITD enzyme were evaluated. Specifically, the compound of the present invention was reacted with a purified human FLT3-ITD enzyme (Signalchem). A composition of 40 mM Tris-HCl pH 7.4, 20 mM MgCl2, 0.5 mg/mL BSA and 50 μM DTT was used as a reaction buffer, and reactions of all test matters were performed on the reaction buffer. Upon the test, human FLT3-ITD enzyme (10 ng), purified ATP (10 μM) and a specific substrate solution were reacted at 25° C. for 1 hour, and then the enzyme activity was identified using an in vitro ADP-Glo™ kinase assay (Promega). The enzyme activity reaction solution, the ADP-Glo reaction solution and the enzyme ability detection solution were reacted in a ratio of 2:2:1, and the activity inhibition degree of the enzyme was measured as luminescence. Using the solvent-treated group that was not treated with the compound as a control group, the enzyme activity inhibition degree according to the treatment concentration of each compound was calculated based on the enzyme activity fluorescence degree, and the concentration of each compound that inhibited 50%, IC50 (nM), was determined using Prism Software (version 5.01, GraphPad).

Consider `COc1cc(N2CCN(C)CC2)ccc1Nc1nc(N2OCC[C@H]2c2ccccc2)c2cc[nH]c2n1` [Example 80, (S)-N-(2-methoxy-4-(4-methylpiperazin-1-yl)phenyl)-4-(3-phenylisoxazolidin-2-yl)-7H-pyrrolo[2,3-d]pyrimidin-2-amine], for which the IC50 at human GST-HPK1 (1-346) is over 500 nM.

At human GST-HPK1 (1-346), `c1ccc([C@@H]2CCON2c2nc(Nc3ccc(N4CCC(N5CCN(C6CC6)CC5)CC4)cc3)nc3[nH]ccc23)cc1` [Example 86, (S)-N-(4-(4-(4-cyclopropylpiperazin-1-yl)piperidin-1-yl)phenyl)-4-(3-phenylisoxazolidin-2-yl)-7H-pyrrolo[2,3-d]pyrimidin-2-amine] registered an IC50 of over 500 nM.

In the case of `COc1cc(N2CCC(N3CCN(C)CC3)CC2)ccc1Nc1nc(N2OCC[C@H]2c2ccccc2)c2cc[nH]c2n1` [Example 88, (S)-N-(2-methoxy-4-(4-(4-methylpiperazin-1-yl)piperidin-1-yl)phenyl)-4-(3-phenylisoxazolidin-2-yl)-7H-pyrrolo[2,3-d]pyrimidin-2-amine], on human GST-HPK1 (1-346), the IC50 is over 500 nM.

In the case of `COc1cc(Nc2nc(N3OCC[C@H]3c3ccccc3)c3cc[nH]c3n2)cc(C(=O)N2CCN(CCO)CC2)c1` [Example 94, (S)-(4-(2-hydroxyethyl)piperazin-1-yl)(3-methoxy-5-((4-(3-phenylisoxazolidin-2-yl)-7H-pyrrolo[2,3-d]pyrimidin-2-yl)amino)phenyl)methanone], the IC50 at human FLT3-ITD enzyme and against human GST-HPK1 (1-346) was over 500 nM each time.

The compound `COc1cc(C(=O)N2CCC(N3CCOCC3)CC2)ccc1Nc1nc(N2OCC[C@H]2c2ccccc2)c2cc[nH]c2n1` [Example 97, (S)-(3-methoxy-4-((4-(3-phenylisoxazolidin-2-yl)-7H-pyrrolo[2,3-d]pyrimidin-2-yl)amino)phenyl)(4-morpholinopiperidin-1-yl)methanone] returned an IC50 against human GST-HPK1 (1-346) of over 500 nM.

In turn, `COc1cc(C(=O)N2CCC(N3CCN(C)CC3)CC2)ccc1Nc1nc(N2OCC[C@H]2c2ccccc2)c2cc[nH]c2n1` [Example 98, (S)-(3-methoxy-4-((4-(3-phenylisoxazolidin-2-yl)-7H-pyrrolo[2,3-d]pyrimidin-2-yl)amino)phenyl)(4-(4-methylpiperazin-1-yl)piperidin-1-yl)methanone] displayed an IC50 against human GST-HPK1 (1-346) of over 500 nM.

`Cc1cc(Nc2nc(N3OCC[C@H]3c3ccccc3)c3cc[nH]c3n2)cc(C)c1OCCCN1CCN(C)CC1` [Example 102, (S)-N-(3,5-dimethyl-4-(3-(4-methylpiperazin-1-yl)propoxy)phenyl)-4-(3-phenylisoxazolidin-2-yl)-7H-pyrrolo[2,3-d]pyrimidin-2-amine] came in with a 50% inhibitory concentration (IC50) at human GST-HPK1 (1-346) of at least 250 nM.

As for `CN(C)C(=O)Cn1cc(Nc2nc(N3OCC[C@H]3c3ccccc3)c3cc[nH]c3n2)cn1` [Example 103, S-N,N-dimethyl-2-(4-((4-(3-phenylisoxazolidin-2-yl)-7H-pyrrolo[2,3-d]pyrimidin-2-yl)amino)-1H-pyrazol-1-yl)acetamide], at human GST-HPK1 (1-346), the IC50 was over 500 nM.

As for `COc1cc2c(cc1Nc1nc(N3OCC[C@H]3c3ccccc3)c3cc[nH]c3n1)CN(C)CC2` [Example 106, (S)-6-methoxy-2-methyl-N-(4-(3-phenylisoxazolidin-2-yl)-7H-pyrrolo[2,3-d]pyrimidin-2-yl)-1,2,3,4-tetrahydroisoquinolin-7-amine], at human GST-HPK1 (1-346), the IC50 is over 500 nM.

On to `COc1cc2c(cc1Nc1nc(N3OCC[C@H]3c3ccccc3)c3cc[nH]c3n1)CNCC2` [Example 107, (S)-6-methoxy-N-(4-(3-phenylisoxazolidin-2-yl)-7H-pyrrolo[2,3-d]pyrimidin-2-yl)-1,2,3,4-tetrahydroisoquinolin-7-amine], for which the IC50 on human GST-HPK1 (1-346) is over 500 nM.

In the case of `COc1cc2c(cc1Nc1nc(N3OCC[C@H]3c3ccccc3)c3cc[nH]c3n1)C(=O)NCC2` [Example 108, (S)-6-methoxy-7-((4-(3-phenylisoxazolidin-2-yl)-7H-pyrrolo[2,3-d]pyrimidin-2-yl)amino)-3,4-dihydroisoquinolin-1(2H)-one], at human GST-HPK1 (1-346), the IC50 is at least 250 nM.

Consider `CC(=O)N1CCc2cc(Nc3nc(N4OCC[C@H]4c4ccccc4)c4cc[nH]c4n3)ccc2C1` [Example 112, (S)-1-(6-((4-(3-phenylisoxazolidin-2-yl)-7H-pyrrolo[2,3-d]pyrimidin-2-yl)amino)-3,4-dihydroisoquinolin-2(1H)-yl)ethan-1-one], for which the concentration for half-maximal inhibition (IC50) against human GST-HPK1 (1-346) is over 500 nM.

On human GST-HPK1 (1-346), `COc1ccc2c(c1Nc1nc(N3OCC[C@H]3c3ccccc3)c3cc[nH]c3n1)CCNC2` [Example 113, (S)-6-methoxy-N-(4-(3-phenylisoxazolidin-2-yl)-7H-pyrrolo[2,3-d]pyrimidin-2-yl)-1,2,3,4-tetrahydroisoquinolin-5-amine] came in with an IC50 of over 500 nM.

On human GST-HPK1 (1-346), `COc1ccc2c(c1Nc1nc(N3OCC[C@H]3c3ccccc3)c3cc[nH]c3n1)CCN(C)C2` [Example 114, (S)-6-methoxy-2-methyl-N-(4-(3-phenylisoxazolidin-2-yl)-7H-pyrrolo[2,3-d]pyrimidin-2-yl)-1,2,3,4-tetrahydroisoquinolin-5-amine] gave an IC50 of over 500 nM.

As to `COc1cc2c(cc1Nc1nc(N3OCC[C@H]3c3ccccc3)c3c(C#N)c[nH]c3n1)CN(C1CC1)CC2` [Example 122, (S)-2-((2-cyclopropyl-6-methoxy-1,2,3,4-tetrahydroisoquinolin-7-yl)amino)-4-(3-phenylisoxazolidin-2-yl)-7H-pyrrolo[2,3-d]pyrimidine-5-carbonitrile], the half-inhibitory concentration (IC50) at human GST-HPK1 (1-346) is over 500 nM.

Consider `FC(F)(F)c1c[nH]c2nc(Nc3ccc4c(c3)CCNC4)nc(N3OCC[C@H]3c3ccccc3)c12` [Example 124, (S)-N-(4-(3-phenylisoxazolidin-2-yl)-5-(trifluoromethyl)-7H-pyrrolo[2,3-d]pyrimidin-2-yl)-1,2,3,4-tetrahydroisoquinolin-6-amine], for which the IC50 against human GST-HPK1 (1-346) is over 500 nM.

For the origin of these results see patent US20220242870A1, “HETEROCYCLE-FUSED PYRIMIDINE DERIVATIVE AND USE THEREOF” (VORONOI Inc., priority 2019, published 2022).
